In patent US20260347338A1, “PYRIMIDINE/PYRIDINE DERIVATIVES OR SALTS THEREOF AND PHARMACEUTICAL COMPOSITIONS COMPRISING THE SAME” (YUHAN CORPORATION, priority 2023, published 2026):
Structures can show the parent of a compound that is named as a salt.

Target: T1, human recombinant HPK1 (Homo sapiens, UniProt Q92918)
T1 construct: purchased BPS Bioscience
Test: Inhibitory activity against human recombinant HPK1 (TR-FRET)
Assay type: biochemical
Details: ULight-p70S6K peptide, ATP at Km, room temperature, 1 hour, 0.32 to 1000 nM compound
In short: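 IC50 classes A–D use 10, 50 and 100 nM cut-offs, derived from TR-FRET signal inhibition relative to DMSO controls. Human recombinant HPK1 phosphorylated ULight-p70S6K peptide at Km ATP for 1 h, room temperature, pH 7.4; test range 0.32–1000 nM final, detection with Eu-labelled antibody after EDTA quench.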

T1 sequence (Q92918 whole entry): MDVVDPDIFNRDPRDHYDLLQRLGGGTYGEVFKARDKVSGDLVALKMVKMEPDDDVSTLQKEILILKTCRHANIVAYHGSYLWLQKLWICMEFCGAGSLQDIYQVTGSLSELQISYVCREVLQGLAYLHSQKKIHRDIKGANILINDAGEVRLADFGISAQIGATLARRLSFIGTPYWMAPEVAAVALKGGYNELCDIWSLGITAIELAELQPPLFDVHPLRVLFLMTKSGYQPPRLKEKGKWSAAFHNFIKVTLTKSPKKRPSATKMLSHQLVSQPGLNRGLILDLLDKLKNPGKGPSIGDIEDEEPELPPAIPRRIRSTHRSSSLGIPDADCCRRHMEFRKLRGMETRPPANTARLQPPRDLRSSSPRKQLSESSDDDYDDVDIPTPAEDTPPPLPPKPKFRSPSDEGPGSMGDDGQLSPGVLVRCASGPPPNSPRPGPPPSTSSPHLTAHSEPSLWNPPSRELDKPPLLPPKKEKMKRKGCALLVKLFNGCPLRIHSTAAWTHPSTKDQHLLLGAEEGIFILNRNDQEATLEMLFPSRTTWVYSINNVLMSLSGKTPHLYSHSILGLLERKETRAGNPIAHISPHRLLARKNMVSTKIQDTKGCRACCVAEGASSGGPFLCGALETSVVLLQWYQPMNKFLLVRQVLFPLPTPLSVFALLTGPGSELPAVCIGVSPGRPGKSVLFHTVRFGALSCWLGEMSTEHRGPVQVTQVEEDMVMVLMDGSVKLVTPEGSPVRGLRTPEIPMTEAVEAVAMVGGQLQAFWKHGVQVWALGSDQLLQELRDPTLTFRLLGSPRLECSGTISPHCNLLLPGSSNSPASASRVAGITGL

| Compound | IC50 [nM] |
| --- | --- |
| COc1cccc(F)c1-c1nccc(Nc2cc(N3CCC[C@H](O)C3)c(-c3ccc(CN4CCC(O)CC4)nc3)cn2)n1 [Example 33, (S)-1-(6-((2-(2-fluoro-6-methoxyphenyl)pyrimidin-4-yl)amino)-6′-((4-hydroxypiperidin-1-yl)methyl)-[3,3′-bipyridin]-4-yl)piperidin-3-ol] | 10 to 50 |
| COc1cccc(F)c1-c1nccc(Nc2cc(N3CCC[C@H](N)C3)c(-c3cnc(C4CCN(C)CC4)s3)cn2)n1 [Example 98, (S)-N-(4-(3-aminopiperidin-1-yl)-5-(2-(1-methylpiperidin-4-yl)thiazol-5-yl)pyridin-2-yl)-2-(2-fluoro-6-methoxyphenyl)pyrimidin-4-amine hydrochloride] | ≤ 10 |
| COc1cccc(F)c1-c1nccc(Nc2cc(N3CCC(CCN(C)C)CC3)c(-c3cnn(CC(F)(F)F)c3)cn2)n1 [Example 148, N-(4-(4-(2-(dimethylamino)ethyl)piperidin-1-yl)-5-(1-(2,2,2-trifluoroethyl)-1H-pyrazol-4-yl)pyridin-2-yl)-2-(2-fluoro-6-methoxyphenyl)pyrimidin-4-amine] | ≤ 10 |
| COc1cccc(F)c1-c1nccc(Nc2cc(N3CCC[C@H](O)C3)c(-c3ccc(N4CCN(C)CC4)cc3)cn2)n1 [Example 19, (S)-1-(2-((2-(2-fluoro-6-methoxyphenyl)pyrimidin-4-yl)amino)-5-(4-(4-methylpiperazin-1-yl)phenyl)pyridin-4-yl)piperidin-3-ol] | ≤ 10 |
| COc1cccc(F)c1-c1nccc(Nc2cc(N3CCC[C@H](N)C3)c(-c3ccc(C4CCOCC4)nc3)cn2)n1 [Example 82, (S)-4-(3-aminopiperidin-1-yl)-N-(2-(2-fluoro-6-methoxyphenyl)pyrimidin-4-yl)-6′-(tetrahydro-2H-pyran-4-yl)-[3,3′-bipyridin]-6-amine hydrochloride] | ≤ 10 |
| COc1cccc(F)c1-c1nc(Nc2cc(N3CCC[C@H](N)C3)c(-c3cnn(C(C)C)c3)cn2)ccc1C#N [Example 328, 6-((4-((S)-3-aminopiperidin-1-yl)-5-(1-isopropyl-1H-pyrazol-4-yl)pyridin-2-yl)amino)-2-(2-fluoro-6-methoxyphenyl)nicotinonitrile hydrochloride] | ≤ 10 |
| O=C(c1cnc(Nc2ccnc(-c3cccc(O)c3)n2)cc1N1CCC[C@H](O)C1)C1CC1 [Example 4, (S)-cyclopropyl(6-((2-(3-hydroxyphenyl)pyrimidin-4-yl)amino)-4-(3-hydroxypiperidin-1-yl)pyridin-3-yl)methanone] | 50 to 100 |
| COc1cccc(F)c1-c1nccc(Nc2cc(N3CCC[C@H](N)C3)c(-c3ccc4c(c3)OCCN4C)cn2)n1 [Example 257, (S)-N-(4-(3-aminopiperidin-1-yl)-5-(4-methyl-3,4-dihydro-2H-benzo[b][1,4]oxazin-7-yl)pyridin-2-yl)-2-(2-fluoro-6-methoxyphenyl)pyrimidin-4-amine hydrochloride] | ≤ 10 |
| COc1cccc(F)c1-c1nccc(Nc2cc(N3CCC[C@H](N)C3)c(-c3cnn(CC(C)(C)O)c3)cn2)n1 [Example 235, (S)-1-(4-(4-(3-aminopiperidin-1-yl)-6-((2-(2-fluoro-6-methoxyphenyl)pyrimidin-4-yl)amino)pyridin-3-yl)-1H-pyrazol-1-yl)-2-methylpropan-2-ol hydrochloride] | ≤ 10 |
| COc1cccc(F)c1-c1nccc(Nc2cc(N3CCC[C@H](O)C3)c(-c3ccc(C(=O)N4CCC(O)CC4)nc3)cn2)n1 [Example 38, (S)-(6′-((2-(2-fluoro-6-methoxyphenyl)pyrimidin-4-yl)amino)-4′-(3-hydroxypiperidin-1-yl)-[3,3′-bipyridin]-6-yl)(4-hydroxypiperidin-1-yl)methanone] | ≤ 10 |
| COc1cccc(F)c1-c1nccc(Nc2cc(N3CCC(CO)(CC(F)F)CC3)c(-c3cnn(C4CCOCC4)c3)cn2)n1 [Example 47, (4-(2,2-difluoroethyl)-1-(2-((2-(2-fluoro-6-methoxyphenyl)pyrimidin-4-yl)amino)-5-(1-(tetrahydro-2H-pyran-4-yl)-1H-pyrazol-4-yl)pyridin-4-yl)piperidin-4-yl)methanol] | ≤ 10 |
| COc1cccc(F)c1-c1nccc(Nc2cc(N3CC[C@H](N)[C@@H](F)C3)c(-c3cnn(C(F)F)c3)cn2)n1 [Example 302, N-(4-((3S,4S)-4-amino-3-fluoropiperidin-1-yl)-5-(1-(difluoromethyl)-1H-pyrazol-4-yl)pyridin-2-yl)-2-(2-fluoro-6-methoxyphenyl)pyrimidin-4-amine hydrochloride] | ≤ 10 |
| COc1cc(C(=O)N2CC(F)(F)C2)cc(F)c1-c1nccc(Nc2cc(N3CCC[C@H](O)C3)c(-c3cnn(C(F)F)c3)cn2)n1 [Example 231, (S)-(3,3-difluoroazetidin-1-yl)(4-(4-((5-(1-(difluoromethyl)-1H-pyrazol-4-yl)-4-(3-hydroxypiperidin-1-yl)pyridin-2-yl)amino)pyrimidin-2-yl)-3-fluoro-5-methoxyphenyl)methanone] | ≤ 10 |
| COc1cccc(F)c1-c1nccc(Nc2cc(N3CCC[C@H](N)C3)c(-c3ccc4c(c3)OCC(=O)N4)cn2)n1 [Example 260, (S)-7-(4-(3-aminopiperidin-1-yl)-6-((2-(2-fluoro-6-methoxyphenyl)pyrimidin-4-yl)amino)pyridin-3-yl)-2H-benzo[b][1,4]oxazin-3(4H)-one hydrochloride] | ≤ 10 |
| COc1cccc(F)c1-c1nccc(Nc2cc(N3CCC[C@H](O)C3)c(-c3ccc4nncn4c3)cn2)n1 [Example 62, (S)-1-(5-([1,2,4]triazolo[4,3-a]pyridin-6-yl)-2-((2-(2-fluoro-6-methoxyphenyl)pyrimidin-4-yl)amino)pyridin-4-yl)piperidin-3-ol] | 50 to 100 |
| COc1cccc(F)c1-c1nccc(Nc2cc(N3CCC(C(C)O)CC3)c(-c3cnn(C4CCOCC4)c3)cn2)n1 (centres unmarked) [Example 66, 1-(1-(2-((2-(2-fluoro-6-methoxyphenyl)pyrimidin-4-yl)amino)-5-(1-(tetrahydro-2H-pyran-4-yl)-1H-pyrazol-4-yl)pyridin-4-yl)piperidin-4-yl)ethan-1-ol] | ≤ 10 |
| Cc1cncc(-c2nccc(Nc3cc(N4CCC[C@H](O)C4)c(C(=O)C4CC4)cn3)n2)c1 [Example 1, (S)-cyclopropyl(4-(3-hydroxypiperidin-1-yl)-6-((2-(5-methylpyridin-3-yl)pyrimidin-4-yl)amino)pyridin-3-yl)methanone] | 10 to 50 |
| COc1cccc(F)c1-c1nc(Nc2cc(N3CCC[C@H](O)C3)c(C(=O)N[C@@H]3CC[C@@H](O)C3)cn2)ccc1[N+](=O)[O-] [Example 194, 6-((6-(2-fluoro-6-methoxyphenyl)-5-nitropyridin-2-yl)amino)-N-((1R,3R)-3-hydroxycyclopentyl)-4-((S)-3-hydroxypiperidin-1-yl)nicotinamide] | ≤ 10 |
| CN[C@H]1CCN(c2cc(Nc3ccnc(-c4c(F)cccc4OC)n3)ncc2-c2cnn(C3CCOCC3)c2)C1 [Example 124, (S)-2-(2-fluoro-6-methoxyphenyl)-N-(4-(3-(methylamino)pyrrolidin-1-yl)-5-(1-(tetrahydro-2H-pyran-4-yl)-1H-pyrazol-4-yl)pyridin-2-yl)pyrimidin-4-amine] | ≤ 10 |
| CNCc1cc(F)c(-c2nccc(Nc3cc(N4CCC[C@H](O)C4)c(-c4cnn(C5CCOCC5)c4)cn3)n2)c(OC)c1 [Example 190, (S)-1-(2-((2-(2-fluoro-6-methoxy-4-((methylamino)methyl)phenyl)pyrimidin-4-yl)amino)-5-(1-(tetrahydro-2H-pyran-4-yl)-1H-pyrazol-4-yl)pyridin-4-yl)piperidin-3-ol] | ≤ 10 |
| COc1cccc(F)c1-c1nccc(Nc2cc(N3CCC[C@H](N)C3)c(C#Cc3cnn(C(F)(F)F)c3)cn2)n1 [Example 111, (S)-N-(4-(3-aminopiperidin-1-yl)-5-((1-(trifluoromethyl)-1H-pyrazol-4-yl)ethynyl)pyridin-2-yl)-2-(2-fluoro-6-methoxyphenyl)pyrimidin-4-amine hydrochloride] | ≤ 10 |
| COc1cccc(F)c1-c1nccc(Nc2cc(N3CCC[C@H](N)C3)c(-c3ccc(N4CCOCC4)c(C)c3)cn2)n1 [Example 287, (S)-N-(4-(3-aminopiperidin-1-yl)-5-(3-methyl-4-morpholinophenyl)pyridin-2-yl)-2-(2-fluoro-6-methoxyphenyl)pyrimidin-4-amine hydrochloride] | ≤ 10 |
| COc1cccc(F)c1-c1nccc(Nc2cc(N3CCC4(CCN(C)C4)CC3)c(-c3cnn(C4CCOCC4)c3)cn2)n1 [Example 117, 2-(2-fluoro-6-methoxyphenyl)-N-(4-(2-methyl-2,8-diazaspiro[4.5]decan-8-yl)-5-(1-(tetrahydro-2H-pyran-4-yl)-1H-pyrazol-4-yl)pyridin-2-yl)pyrimidin-4-amine] | ≤ 10 |
| CNC[C@H]1CCCN(c2cc(Nc3ccnc(-c4c(F)cccc4OC)n3)ncc2-c2cnn(C(F)F)c2)C1 [Example 267, (R)-N-(5-(1-(difluoromethyl)-1H-pyrazol-4-yl)-4-(3-((methylamino)methyl)piperidin-1-yl)pyridin-2-yl)-2-(2-fluoro-6-methoxyphenyl)pyrimidin-4-amine hydrochloride] | ≤ 10 |
| COc1cccc(F)c1-c1nc(Nc2cc(N3CC[C@@H](F)[C@H](O)C3)c(-c3cnn(C(F)F)c3)cn2)ccc1C#N [Example 331, 6-((5-(1-(difluoromethyl)-1H-pyrazol-4-yl)-4-((3R,4R)-4-fluoro-3-hydroxypiperidin-1-yl)pyridin-2-yl)amino)-2-(2-fluoro-6-methoxyphenyl)nicotinonitrile] | ≤ 10 |
| O[C@H]1CCCN(c2cc(Nc3ccnc(-c4ccc5cccnc5c4F)n3)ncc2-c2cnn(C3CCOCC3)c2)C1 [Example 29, (S)-1-(2-((2-(8-fluoroquinolin-7-yl)pyrimidin-4-yl)amino)-5-(1-(tetrahydro-2H-pyran-4-yl)-1H-pyrazol-4-yl)pyridin-4-yl)piperidin-3-ol] | ≤ 10 |
